The test system of the series is rodent lifetime carcinogenesis bioassay, tumor incidence TD50. As to the kind of experiment: chronic cancer bioassays in animals – CPDB, compiled studies (AID 1745844).

“And” between values parts separate entries of the source, which are not always exact repeats. Equal values may be shown once. The source made the active and inactive calls. How the calls were made is not given here.

In PubChem BioAssay AID1745844 (Carcinogenic Potency Database (CPDB), 2022) one finds TD50 and carcinogen call data, which are given here for three compounds.

Consider `CCn1cc(C(=O)O)c(=O)c2ccc(C)nc21`, for which the TD50 (mouse, strain B6C3F1, females, in feed, site: adrenal medulla, lesion: pheochromocytoma, dosed 103 weeks, study length 104 weeks) was 3630 mg/kg/day (inactive); the TD50 (mouse, strain B6C3F1, females, in feed, site: any site (literature study), lesion: several types, types named in the paper, dosed 103 weeks, study length 104 weeks) was found to be 1690 mg/kg/day; the TD50 (mouse, strain B6C3F1, females, in feed, site: liver, lesion: hepatocellular adenoma + hepatocellular carcinoma + neoplastic nodule, dosed 103 weeks, study length 104 weeks) was 3160 mg/kg/day; the TD50 (mouse, strain B6C3F1, females, in feed, site: lung, lesion: alveolar/bronchiolar adenoma + alveolar/bronchiolar carcinoma, dosed 103 weeks, study length 104 weeks) is 4900 mg/kg/day; the TD50 (mouse, strain B6C3F1, males, in feed, site: any site (literature study), lesion: several types, types named in the paper, dosed 103 weeks, study length 104 weeks) turned out to be 1330 mg/kg/day; the TD50 (mouse, strain B6C3F1, males, in feed, site: lung, lesion: alveolar/bronchiolar adenoma + alveolar/bronchiolar carcinoma, dosed 103 weeks, study length 104 weeks) was determined as 4600 mg/kg/day. In addition, the TD50 (mouse, strain B6C3F1, males, in feed, site: subcutaneous tissue, lesion: fibrosarcoma + fibroma, dosed 103 weeks, study length 104 weeks) is 1210 mg/kg/day; the TD50 (mouse, strain CDF1, females, in feed, site: liver, lesion: hepatocellular adenoma, dosed 76 weeks, study length 85 weeks) is 6450 mg/kg/day (inactive); the TD50 (mouse, strain CDF1, females, in feed, site: lung, lesion: adenocarcinoma, dosed 76 weeks, study length 85 weeks) was 1770 mg/kg/day (inactive); the TD50 (mouse, strain CDF1, males, in feed, site: liver, lesion: hepatocellular carcinoma, dosed 76 weeks, study length 85 weeks) is 1940 mg/kg/day (inactive); the TD50 (mouse, strain CDF1, males, in feed, site: liver, lesion: several types, types named in the paper, dosed 76 weeks, study length 85 weeks) is 3100 mg/kg/day (inactive); the TD50 (mouse, strain CDF1, males, in feed, site: lung, lesion: adenocarcinoma, dosed 76 weeks, study length 85 weeks) was 3980 mg/kg/day (inactive). The TD50 was 372 mg/kg/day (rat, strain Fischer 344, females, in feed, site: clitoral gland, lesion: adenoma, NOS + carcinoma, NOS + papillary carcinoma + papilloma, NOS, dosed 103 weeks, study length 104 weeks); 7600 mg/kg/day (rat, strain Fischer 344, males, in feed, site: any site (literature study), lesion: several types, types named in the paper, dosed 103 weeks, study length 104 weeks); 138 mg/kg/day (rat, strain Fischer 344, males, in feed, site: preputial gland, lesion: adenoma, NOS + carcinoma, NOS + papilloma, NOS, dosed 103 weeks, study length 104 weeks); 358 mg/kg/day (rat, strain Fischer 344, males, in feed, site: preputial gland, lesion: adenoma, NOS + papilloma, NOS, dosed 103 weeks, study length 104 weeks); 301 mg/kg/day (rat, strain Fischer 344, males, in feed, site: preputial gland, lesion: adenoma, NOS, dosed 103 weeks, study length 104 weeks); 211 mg/kg/day (rat, strain Fischer 344, males, in feed, site: preputial gland, lesion: carcinoma, NOS, dosed 103 weeks, study length 104 weeks). Further, the carcinogen call was “negative (inactive)” (mouse, strain CDF1, females, in feed, site: any site (literature study), lesion: one or several types, types not named, dosed 76 weeks, study length 85 weeks); “negative (inactive)” (mouse, strain CDF1, females, in feed, site: lung, lesion: several types, types named in the paper, dosed 76 weeks, study length 85 weeks); “negative (inactive)” (mouse, strain CDF1, males, in feed, site: any site (literature study), lesion: one or several types, types not named, dosed 76 weeks, study length 85 weeks); “negative (inactive)” (mouse, strain CDF1, males, in feed, site: liver, lesion: hepatocellular adenoma, dosed 76 weeks, study length 85 weeks); “negative (inactive)” (mouse, strain CDF1, males, in feed, site: lung, lesion: several types, types named in the paper, dosed 76 weeks, study length 85 weeks).
Take `C[C@]12C=CC(=O)C=C1CC[C@@H]1[C@@H]2[C@@H](O)C[C@@]2(C)[C@H]1CC[C@]2(O)C(=O)CO`: the TD50 (rat, strain Charles River CD (Sprague-Dawley), males, in drinking water, site: liver, lesion: hepatocellular adenoma, dosed 104 weeks, study length 104 weeks) was 2.16 mg/kg/day; the TD50 (rat, strain Charles River CD (Sprague-Dawley), males, in drinking water, site: liver, lesion: hepatocellular carcinoma, dosed 104 weeks, study length 104 weeks) is 6.58 mg/kg/day; the TD50 (rat, strain Charles River CD (Sprague-Dawley), males, in drinking water, site: liver, lesion: several types, types named in the paper, dosed 104 weeks, study length 104 weeks) is 1.53 mg/kg/day; the TD50 (rat, strain Sprague-Dawley, females, by gavage, site: any site (literature study), lesion: benign tumor, dosed 78 weeks, study length 104 weeks) was 1.96 mg/kg/day (inactive). The carcinogen call (rat, strain Sprague-Dawley, females, by gavage, site: any site (literature study), lesion: malignant tumor, dosed 78 weeks, study length 104 weeks) was “negative (inactive)”.
On to `Cc1nc(N)cc2[nH]c3ccccc3c12`, for which the TD50 is 6.81 mg/kg/day (mouse, strain CDF1, females, in feed, site: liver, lesion: hepatocellular carcinoma, dosed 88 weeks, study length 88 weeks); 88.2 mg/kg/day (mouse, strain CDF1, males, in feed, site: liver, lesion: hepatocellular carcinoma, dosed 88 weeks, study length 88 weeks); 83.2 mg/kg/day (mouse, strain CDF1, males, in feed, site: liver, lesion: several types, types named in the paper, dosed 88 weeks, study length 88 weeks); 81.1 mg/kg/day (mouse, strain CDF1, males, in feed, site: lung, lesion: adenocarcinoma, dosed 88 weeks, study length 88 weeks); 224 mg/kg/day (mouse, strain CDF1, males, in feed, site: lung, lesion: adenoma, dosed 88 weeks, study length 88 weeks); 41.4 mg/kg/day (rat, strain ACI, females, in feed, site: ileum, lesion: adenoma, dosed 124 weeks, study length 124 weeks). The TD50 reads like this: (rat, strain ACI, females, in feed, site: jejunum, lesion: adenocarcinoma, dosed 124 weeks, study length 124 weeks) 41.4 mg/kg/day; (rat, strain ACI, females, in feed, site: liver, lesion: hemangioendothelial sarcoma, dosed 124 weeks, study length 124 weeks) 41.4 mg/kg/day; (rat, strain ACI, females, in feed, site: liver, lesion: neoplastic nodule, dosed 124 weeks, study length 124 weeks) 4.43 mg/kg/day; (rat, strain ACI, females, in feed, site: liver, lesion: several types, types named in the paper, dosed 124 weeks, study length 124 weeks) 4.43 mg/kg/day; (rat, strain F344/DuCrj, females, in feed, site: all sites, lesion: malignant lymphoma, dosed 112 weeks, study length 112 weeks) 29 mg/kg/day; (rat, strain F344/DuCrj, females, in feed, site: clitoral gland, lesion: adenocarcinoma, dosed 112 weeks, study length 112 weeks) 75.5 mg/kg/day. In addition, the TD50 by setting is: (rat, strain F344/DuCrj, females, in feed, site: clitoral gland, lesion: adenoma, dosed 112 weeks, study length 112 weeks) 12.8 mg/kg/day; (rat, strain F344/DuCrj, females, in feed, site: clitoral gland, lesion: several types, types named in the paper, dosed 112 weeks, study length 112 weeks) 9.42 mg/kg/day; (rat, strain F344/DuCrj, females, in feed, site: liver, lesion: hepatocellular adenoma, dosed 112 weeks, study length 112 weeks) 74.3 mg/kg/day; (rat, strain F344/DuCrj, females, in feed, site: mammary gland, lesion: adenoma, dosed 112 weeks, study length 112 weeks) 76.2 mg/kg/day; (rat, strain F344/DuCrj, females, in feed, site: mammary gland, lesion: several types, types named in the paper, dosed 112 weeks, study length 112 weeks) 9.78 mg/kg/day and 11.5 mg/kg/day; (rat, strain F344/DuCrj, females, in feed, site: uterus, lesion: endometrial stromal polyp, dosed 112 weeks, study length 112 weeks) 3.6 mg/kg/day. Further, the TD50 reads like this: (rat, strain F344/DuCrj, males, in feed, site: liver, lesion: hepatocellular adenoma, dosed 112 weeks, study length 112 weeks) 10.7 mg/kg/day; (rat, strain F344/DuCrj, males, in feed, site: mammary gland, lesion: several types, types named in the paper, dosed 112 weeks, study length 112 weeks) 8.43 mg/kg/day; (rat, strain F344/DuCrj, males, in feed, site: urinary bladder, lesion: several types, types named in the paper, dosed 112 weeks, study length 112 weeks) 9.72 mg/kg/day; (rat, strain F344/DuCrj, males, in feed, site: urinary bladder, lesion: transitional-cell carcinoma, dosed 112 weeks, study length 112 weeks) 59.9 mg/kg/day; (rat, strain F344/DuCrj, males, in feed, site: urinary bladder, lesion: transitional-cell papilloma, dosed 112 weeks, study length 112 weeks) 12.3 mg/kg/day.
